Patent US20210085640A1, “ACYLATED CATECHIN POLYPHENOLS AND METHODS OF THEIR USE FOR THE TREATMENT OF CANCER” (Flagship Pioneering Innovations V, Inc., priority 2018, published 2021)
pIC50: −log10 of the molar value.

Legend:
Type in all cases: cell-based
MCF7 breast cancer cells = experiment: Cancer cell survival (CellTiter-Glo), MCF7; conditions: Homo sapiens, 72 h
How it was run: (§1)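 Luminescent ATP read-out (CellTiter-Glo) after 72 h compound exposure at 37 C/5% CO2. Survival % is calculated against untreated cells minus medium background, and IC50 is taken from nine concentrations run in triplicate. Plating density was 4×10^3 cells/well with overnight attachment beforehand.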

[1] = system: Daudi lymphoma cancer cells; experiment: Cancer cell survival (CellTiter-Glo), Daudi; conditions: Homo sapiens, 72 h
How it was run: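 Daudi cells (4×10^3/well) were exposed for 72 h at 37 °C to nine concentrations of compound, added as 10× solutions spanning 1 μM–10 mM (fatty acids) or 100 nM–1 mM (others). CellTiter-Glo luminescence gave % survival versus untreated, medium-blank corrected; IC50 derived.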

[2] = system: PC-3 prostate cancer cells; experiment: Cancer cell survival (CellTiter-Glo), PC-3; conditions: Homo sapiens, PC-3 cells, 72 h
How it was run: as §1

AGS stomach cancer cells = experiment: Cancer cell survival (CellTiter-Glo), AGS
How it was run: as §1

[3] = system: HCT 116 colorectal cancer cells; experiment: Cancer cell survival (CellTiter-Glo), HCT 116; conditions: Homo sapiens, HCT 116 cells, 72 h
How it was run: as §1

A549 lung cancer cells = experiment: Cancer cell survival (CellTiter-Glo), A549; conditions: Homo sapiens, 72 h
How it was run: as §1

T24 bladder cancer cells = experiment: Cancer cell survival (CellTiter-Glo), T24; conditions: Homo sapiens
How it was run: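 Viability by CellTiter-Glo after 72 h compound treatment of T24 bladder cancer cells (4×10^3/well, plated the night before), nine concentration levels in triplicate. Percent survival normalised to untreated cells minus medium background, from which IC50 was determined.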

A-431 skin cancer cells = experiment: Cancer cell survival (CellTiter-Glo), A-431; conditions: Homo sapiens, A-431 cells, 72 h
How it was run: as §1

[4] = 101 nM, read-out: Cell survival at given concentration
[5] = 318 nM, read-out: Cell survival at given concentration
[6] = 1 μM, read-out: Cell survival at given concentration
[7] = 3 μM, read-out: Cell survival at given concentration
[8] = 10 μM, read-out: Cell survival at given concentration
[9] = 32 μM, read-out: Cell survival at given concentration
[10] = 100 μM, read-out: Cell survival at given concentration
[11] = 316 μM, read-out: Cell survival at given concentration
[12] = 1000 μM, read-out: Cell survival at given concentration

Oc1cc(O)c2c(c1)O[C@H](c1cc(O)c(O)c(O)c1)[C@H](O)C2 [EGC, epigallocatechin]
viability at 0.101 µM (MCF7 breast cancer cells; [4]): 93% | viability at 0.318 µM (MCF7 breast cancer cells; [5]): 97% | viability at 1 µM (MCF7 breast cancer cells; [6]): 97% | viability at 3 µM (MCF7 breast cancer cells; [7]): 102% | viability at 10 µM (MCF7 breast cancer cells; [8]): 92% | viability at 32 µM (MCF7 breast cancer cells; [9]): 100% | viability at 100 µM (MCF7 breast cancer cells; [10]): 90% | viability at 316 µM (MCF7 breast cancer cells; [11]): 56% | viability at 1000 µM (MCF7 breast cancer cells; [12]): 2% | pIC50 (MCF7 breast cancer cells; Table 5.1): 3.45 | viability at 0.101 µM [1, 4]: 100% | viability at 0.318 µM [1, 5]: 101% | viability at 1 µM [1, 6]: 101% | viability at 3 µM [1, 7]: 103% | viability at 10 µM [1, 8]: 102% | viability at 32 µM [1, 9]: 99% | viability at 100 µM [1, 10]: 0% | viability at 316 µM [1, 11]: 0% | viability at 1000 µM [1, 12]: 0% | pIC50 ([1]; Table 4.1): 4.32 | viability at 0.101 µM [2, 4]: 103% | viability at 0.318 µM [2, 5]: 99% | viability at 1 µM [2, 6]: 100% | viability at 3 µM [2, 7]: 101% | viability at 10 µM [2, 8]: 102% | viability at 32 µM [2, 9]: 98% | viability at 100 µM [2, 10]: 96% | viability at 316 µM [2, 11]: 96% | viability at 1000 µM [2, 12]: 36% | pIC50 ([2]; Table 8.1): 3.05 | viability at 0.101 µM (AGS stomach cancer cells; 72 h, 101 nM, read-out: Cell survival at given concentration): 103% | viability at 0.318 µM (AGS stomach cancer cells; 72 h, 318 nM, read-out: Cell survival at given concentration): 103% | viability at 1 µM (AGS stomach cancer cells; 72 h, 1 μM, Table 10.1, read-out: Cell survival at given concentration): 108% | viability at 3 µM (AGS stomach cancer cells; 72 h, 3 μM, Table 10.1, read-out: Cell survival at given concentration): 105% | viability at 10 µM (AGS stomach cancer cells; 72 h, 10 μM, Table 10.1, read-out: Cell survival at given concentration): 104% | viability at 32 µM (AGS stomach cancer cells; 72 h, 32 μM, Table 10.1, read-out: Cell survival at given concentration): 104% | viability at 100 µM (AGS stomach cancer cells; 72 h, 100 μM, Table 10.1, read-out: Cell survival at given concentration): 107% | viability at 316 µM (AGS stomach cancer cells; 72 h, 316 μM, read-out: Cell survival at given concentration): 80% | viability at 1000 µM (AGS stomach cancer cells; 72 h, 1000 μM, read-out: Cell survival at given concentration): 8% | pIC50 (AGS stomach cancer cells; Table 10.1): 3.32 | viability at 0.101 µM [3, 4]: 99% | viability at 0.318 µM [3, 5]: 98% | viability at 1 µM [3, 6]: 100% | viability at 3 µM [3, 7]: 101% | viability at 10 µM [3, 8]: 99% | viability at 32 µM [3, 9]: 97% | viability at 100 µM [3, 10]: 1% | viability at 316 µM [3, 11]: 0% | viability at 1000 µM [3, 12]: 0% | pIC50 ([3]; Table 6.1): 4.30 | viability at 0.101 µM (A549 lung cancer cells; [4]): 98% | viability at 0.318 µM (A549 lung cancer cells; [5]): 100% | viability at 1 µM (A549 lung cancer cells; [6]): 100% | viability at 3 µM (A549 lung cancer cells; [7]): 100% | viability at 10 µM (A549 lung cancer cells; [8]): 94% | viability at 32 µM (A549 lung cancer cells; [9]): 96% | viability at 100 µM (A549 lung cancer cells; [10]): 94% | viability at 316 µM (A549 lung cancer cells; [11]): 81% | viability at 1000 µM (A549 lung cancer cells; [12]): 9% | pIC50 (A549 lung cancer cells; Table 7.1): 3.19 | viability at 0.101 µM (T24 bladder cancer cells; T-24, 101 nM, 72 h, read-out: Cell survival at given concentration): 99% | viability at 0.318 µM (T24 bladder cancer cells; T-24, 318 nM, 72 h, read-out: Cell survival at given concentration): 103% | viability at 1 µM (T24 bladder cancer cells; T-24, 1 μM, 72 h, read-out: Cell survival at given concentration): 103% | viability at 3 µM (T24 bladder cancer cells; T-24, 3 μM, 72 h, read-out: Cell survival at given concentration): 101% | viability at 10 µM (T24 bladder cancer cells; T-24, 10 μM, 72 h, read-out: Cell survival at given concentration): 100% | viability at 32 µM (T24 bladder cancer cells; T-24, 32 μM, 72 h, read-out: Cell survival at given concentration): 84% | viability at 100 µM (T24 bladder cancer cells; T-24, 100 μM, 72 h, read-out: Cell survival at given concentration): 0% | viability at 316 µM (T24 bladder cancer cells; T-24, 316 μM, 72 h, read-out: Cell survival at given concentration): 0% | viability at 1000 µM (T24 bladder cancer cells; T-24, 1000 μM, 72 h, read-out: Cell survival at given concentration): 0% | pIC50 (T24 bladder cancer cells; T-24, 72 h, Table 3.1, read-out: 1050): 4.40 | viability at 0.101 µM (A-431 skin cancer cells; [4]): 103% | viability at 0.318 µM (A-431 skin cancer cells; [5]): 103% | viability at 1 µM (A-431 skin cancer cells; [6]): 102% | viability at 3 µM (A-431 skin cancer cells; [7]): 102% | viability at 10 µM (A-431 skin cancer cells; [8]): 98% | viability at 32 µM (A-431 skin cancer cells; [9]): 96% | viability at 100 µM (A-431 skin cancer cells; [10]): 95% | viability at 316 µM (A-431 skin cancer cells; [11]): 60% | viability at 1000 µM (A-431 skin cancer cells; [12]): 0% | pIC50 (A-431 skin cancer cells; Table 9.1): 3.41
